Here are results for 18 compounds from ChEMBL document CHEMBL4888484, “Replenishing the malaria drug discovery pipeline: Screening and hit evaluation of the MMV Hit Generation Library 1 (HGL1) against asexual blood stage Plasmodium falciparum ,using a nano luciferase reporter read-out” (2022).

SMILES strings stand for the structures.

For data set [1], the system named is Plasmodium falciparum. Description: Hit confirmation in dose-response curve in NF54 nanoGlo assay, at 12h. Set-up: timepoint 12 hour. In kind it is functional, organism-based, Erythrocyte. The settings on record: Plasmodium falciparum, NF54, Erythrocyte, 12 h.
The test system of data set [2] is Plasmodium falciparum. The experiment in a line: Hit confirmation in dose-response curve in NF54 pLDH assay, at 72h. In kind it is functional, organism-based. More on the design: timepoint 72 hour. The settings on record: NF54, Erythrocyte.
In data set [3] the test system is Plasmodium falciparum. Description: Hit confirmation in dose-response curve in NF54 nanoGlo assay, at 72h. In kind it is functional, organism-based, Erythrocyte. Set-up: timepoint 72 hour. The settings on record: Plasmodium falciparum, NF54, Erythrocyte, 72 h.
A short description of data set [4]: Hit confirmation in dose-response curve in HepG2 cytotoxicity assay, at 72h. The settings on record: human, HepG2 cells. In kind it is toxicity, cell-based. Set-up: timepoint 72 hour.
The test system of data set [5] is Plasmodium falciparum. The experiment in a line: Hit confirmation in dose-response curve in Dd2 pLDH assay, at 72h. Set-up: timepoint 72 hour. In kind it is functional, organism-based. The settings on record: Dd2, Erythrocyte.

As to `CCOC(=O)CCn1cc(F)c(=O)[nH]c1=O`, the IC50 (in general, the point on the concentration scale where inhibition reaches its midpoint) in data set [1] is over 10 µM; in data set [2], 0.0708 µM; in data set [3] it was 0.0269 µM; in data set [5], over 10 µM. The same compound showed an IC50 at 72 h in data set [4] of over 10 µM.

For `CN1CCC(NCC[C@@H](Cc2ccccc2Cl)c2ccc(Cl)cc2)CC1`, the IC50 in data set [1] was determined as 2.45 µM; in data set [2] it was 2.57 µM; in data set [3], 1.51 µM; in data set [5], 2.24 µM. Further, the IC50 at 72 h in data set [4] is over 10 µM.

On to `CC1CCC(c2noc([C@H]3CCO[C@@H]3c3cncc(Br)c3)n2)CC1` (stereo not given in full), for which the IC50 is over 10 µM in data set [1], 4.47 µM in data set [2], 2.88 µM in data set [3] and 3.89 µM in data set [5]. Further, in data set [4], the concentration for half-maximal inhibition (IC50) at 72 h was over 10 µM.

Regarding `CN1CCC(N2CCC(CN(Cc3ccncc3)Cc3c(F)cccc3Cl)CC2)CC1`, the IC50 in data set [1] amounted to 1.74 µM; in data set [2] it was 1.17 µM; in data set [3], 0.708 µM; in data set [5] it was 0.603 µM. Moreover, the IC50 at 72 h in data set [4] was over 10 µM.

For `COc1ccc(-n2ncc(Oc3cccc(C)c3)c(Nc3cccc(C(=O)NCc4ccc(F)cc4)c3)c2=O)cc1`, the IC50 is 5.75 µM in data set [1], over 10 µM in data set [2], 3.55 µM in data set [3] and 7.59 µM in data set [5]. This compound also displayed an IC50 at 72 h in data set [4] of over 10 µM.

For `COc1ccc(NC(=O)C2(N(Cc3ccccc3)C(=O)Cn3nnc4ccccc43)CCCCC2)cc1`, the 50% inhibitory concentration (IC50) in data set [1] was 1.7 µM; in data set [2] it was over 10 µM; in data set [3], 4.47 µM; in data set [5], over 10 µM. Besides, the IC50 at 72 h in data set [4] is over 10 µM.

`CC(=O)Nc1ccc(C)cc1S(=O)(=O)N1CC=C(c2c(C)n(Cc3ccccc3C)c3ccccc23)CC1`: the IC50 in data set [1] was 1.86 µM; in data set [2], 4.47 µM; in data set [3], 1.7 µM; in data set [5] it was 3.47 µM. In data set [4], the IC50 at 72 h is over 10 µM.

As to `Cc1noc(NCc2ccc(Cl)cc2)n1`, the IC50 in data set [1] is over 10 µM; in data set [2], 8.13 µM; in data set [3], 3.8 µM; in data set [5] it was 2.88 µM. In addition, the IC50 at 72 h in data set [4] is over 10 µM.

On to `O=C(Nc1ccc(C2(c3ccc(NC(=O)c4ccc(F)cc4)cc3)c3ccccc3C(=O)c3ccccc32)cc1)c1ccc(F)cc1`, for which the IC50 in data set [1] came out at 5.01 µM; in data set [2] it was 5.89 µM; in data set [3], 2.04 µM; in data set [5] it was 8.13 µM. Also, in data set [4], the IC50 at 72 h is over 10 µM.

In the case of `CCNc1nc(C)cc(Nc2ccc(NC(=O)c3cc(C)ccc3C)cc2)n1`, the IC50 came to 0.457 µM in data set [1], 0.776 µM in data set [2], 0.324 µM in data set [3] and 0.631 µM in data set [5]. In data set [4], this compound displayed an IC50 at 72 h of over 10 µM.

As to `O=C(c1ccccc1F)N(Cc1nccn1Cc1c(F)cccc1Cl)C1CC1`, the IC50 in data set [1] was 1.32 µM; in data set [2] it was 6.92 µM; in data set [3], 2.75 µM; in data set [5], over 10 µM. Moreover, the half-maximal inhibitory concentration (IC50) at 72 h in data set [4] was over 10 µM.

Turning to `CC(C)c1cc(=O)[nH]c(-n2nc(C3CC3)cc2NC(=O)c2ccc(F)cc2)n1`, the IC50 is over 10 µM in data set [1], 6.46 µM in data set [2], 0.708 µM in data set [3] and 2.82 µM in data set [5]. For the same compound, the midpoint of inhibition in data set [4], the IC50 at 72 h, lay at 10 µM.

As for `COc1ccc(-[n+]2c(-c3ccccc3)cn3c2CCC3)cc1`, the IC50 in data set [1] is over 10 µM; in data set [2], 1.41 µM; in data set [3], 0.794 µM; in data set [5], 0.776 µM. In data set [4], this compound gave an IC50 at 72 h of over 10 µM.

Consider `CN(Cc1ccc(-c2ccccc2)cc1)c1cc([C@H]2C[C@@H](N)C2)nc(N)n1`, for which the IC50 in data set [1] is 3.98 µM; in data set [2], 4.17 µM; in data set [3] it was 2.19 µM; in data set [5] it was 3.24 µM. Besides, the IC50 at 72 h in data set [4] was over 10 µM.

For the compound `CC[C@H]1CN2C=NC(N3CCN(C(=O)Nc4cc(F)cc(F)c4)CC3)=CC2=N1`, the IC50 in data set [1] was over 10 µM; in data set [2], 1.26 µM; in data set [3], 2.82 µM; in data set [5] it was 3.39 µM. Also, the IC50 at 72 h in data set [4] was over 10 µM.

Consider `Cc1ccccc1Cn1cnc2c1c(=O)n(C1CCCCC1)c(=O)n2-c1ccccc1Cl`, for which the IC50 in data set [1] is over 10 µM; in data set [2], 5.5 µM; in data set [3], 1.74 µM; in data set [5], 4.27 µM. The compound also displayed an IC50 at 72 h in data set [4] of over 10 µM.

Take `CCC(CC)c1cc([C@H]2CN3CC[C@H]2C[C@@H]3CNS(=O)(=O)Cc2ccccc2)nc(-c2ccncc2)n1`: the IC50 in data set [1] amounted to 3.89 µM; in data set [2] it was 4.37 µM; in data set [3] it was 2.04 µM; in data set [5] it was 3.89 µM. The IC50 at 72 h in data set [4] was over 10 µM.

For `C[N+]12CCCCC1C(OC(=O)C1(c3ccccc3)CCCC1)CCC2` (stereo not given), the IC50 in data set [1] is over 10 µM; in data set [2] it was 2.82 µM; in data set [3] it was 2.04 µM; in data set [5] it was 2.04 µM. For the same compound, in data set [4], the IC50 at 72 h was over 10 µM.
